Test results published in ChEMBL document CHEMBL4020745 (Bioorg Med Chem Lett, 2017).

Columns and labels:
Type in all cases: cell-based
[1] = target: T1, Peroxisome proliferator-activated receptor gamma (Homo sapiens, UniProt P37231); experiment: Transrepression activity at human PPARgamma expressed in HEK293 cells assessed as inhibition of TNFalpha induced NF-kappaB promoter activity pretreated for 4 hrs followed by TNFalpha stimulation after 3 hrs by luciferase reporter gene assay
T1 sequence (P37231 whole entry): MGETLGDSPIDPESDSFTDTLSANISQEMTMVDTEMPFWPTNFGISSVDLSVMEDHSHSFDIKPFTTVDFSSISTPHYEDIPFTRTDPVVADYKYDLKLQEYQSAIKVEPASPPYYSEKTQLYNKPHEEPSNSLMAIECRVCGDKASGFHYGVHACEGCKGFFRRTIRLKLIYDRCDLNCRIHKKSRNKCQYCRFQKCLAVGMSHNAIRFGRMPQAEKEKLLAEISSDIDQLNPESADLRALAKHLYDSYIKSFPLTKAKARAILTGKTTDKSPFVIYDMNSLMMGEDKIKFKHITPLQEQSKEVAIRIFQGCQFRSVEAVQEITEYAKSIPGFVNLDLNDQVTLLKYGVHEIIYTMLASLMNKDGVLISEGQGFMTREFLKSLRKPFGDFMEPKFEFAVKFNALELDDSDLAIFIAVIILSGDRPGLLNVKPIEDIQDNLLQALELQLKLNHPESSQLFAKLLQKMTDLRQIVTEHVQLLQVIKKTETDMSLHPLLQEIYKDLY

[2] = target: T1, Peroxisome proliferator-activated receptor gamma; experiment: Transactivation activity at Gal4 fused […] human PPARgamma LBD expressed in HEK293 cells after 24 hrs by luciferase reporter gene assay
[3] = tested on: HEK293; experiment: Cytotoxicity against HEK293 cells harboring beta-galactosidase expression plasmid assessed as effect on beta-galactosidase activity; details: human
[4] = Inhibition of TNFalpha induced NF-kappaB (unknown origin) activation expressed in PPARgamma deficient HEK293 cells pretreated for 4 hrs followed by TNFalpha stimulation after 3 hrs by luciferase reporter gene assay; details: Homo sapiens

Row | IC50 [1] [µM] | EC50 [2] [µM] | Compound | Activity [3] | IC50 [4] [µM]
1 | 20 | 0.53 | CC(C)N(CCOc1ccc(CC2SC(=O)NC2=O)cc1)c1nc2ccccc2s1 (stereo unspecified) | Non-Toxic | –
2 | 40 | 1.6 | CN(CCOc1ccc(/C=C2\SC(=O)NC2=O)cc1)c1ccc2ccccc2c1 | Non-Toxic | –
3 | 15 | 0.36 | CCN(CCOc1ccc(/C=C2\SC(=O)NC2=O)cc1)c1ccccn1 | Non-Toxic | –
4 | 17 | 0.82 | CCN(CCOc1ccc(/C=C2\SC(=O)NC2=O)cc1)c1nc2ccccc2s1 | Non-Toxic | –
5 | 21 | 0.54 | CCN(CCOc1ccc(CC2SC(=O)NC2=O)cc1)c1ccccn1 (stereo unspecified) | Non-Toxic | –
6 | 20 | 0.057 | CN(CCOc1ccc(CC2SC(=O)NC2=O)cc1)c1nc2ccccc2s1 (stereo unspecified) | Non-Toxic | –

Continued, compound first:

Row | Compound | IC50 [1] [µM] | EC50 [2] [µM] | Activity [3] | IC50 [4] [µM]
7 | CCc1ccc(CCOc2ccc(CC3SC(=O)NC3=O)cc2)nc1 (stereo unspecified) [PIOGLITAZONE] | – | – | Non-Toxic | –
8 | CN(CCOc1ccc(/C=C2\SC(=O)NC2=O)cc1)c1nc2ccccc2[nH]1 | 38 | 3.4 | Non-Toxic | –
9 | CCN(CCOc1ccc(CC2SC(=O)NC2=O)cc1)c1nc2ccccc2s1 (stereo unspecified) | 25 | 0.052 | Non-Toxic | –
10 | O=C1NC(=O)/C(=C/c2ccc(OCCNc3nc4ccccc4s3)cc2)S1 | 14 | 0.053 | Non-Toxic | 29
11 | CN(CCOc1ccc(/C=C2\SC(=O)NC2=O)cc1)c1nc2ccccc2s1 | 13 | 0.31 | Non-Toxic | –
12 | CN(CCOc1ccc(CC2SC(=O)NC2=O)cc1)c1ccccn1 (stereo unspecified) [ROSIGLITAZONE] | – | – | Non-Toxic | –
13 | CN(CCOc1ccc(/C=C2\SC(=O)NC2=O)cc1)c1nccs1 | 42 | 0.7 | Non-Toxic | –
